Measured values taken from US10383873B2, “Method and kits for identifying of CDK9 inhibitors for the treatment of cancer” (Memorial Sloan-Kettering Cancer Center, priority 2014, dated 2019).

Key:
human HCC cell lines [1] = details: previous findings; cited from earlier work
CDK9 = CDK9 (Homo sapiens, UniProt P50750); details: versus other available inhibitors
Ser2 of RNA pol II = assay: Immunoblot of Pol II Ser2 phosphorylation in tumors; assay type: in vivo, mice
From the text: Mice were maintained under specific pathogen-free conditions, and food and water were provided ad libitum. […] One million murine or human HCC cells were ortothopically transplantated into female nude recipient mice (NCR nu/nu, purchased from Charles River laboratories and Harlan Laboratories), as described previously (Saborowski et al. 2013 Proc Natl Acad Sci USA. 2013 Nov. 26; 110(48):19513-8. doi: 10.1073/pnas.1311707110.). […] For PHA-767491 treatment trials, PHA-767491 was solved in ultrapure distilled water, filtered by 0.2 M filters, and diluted to a final concentration of 5 mg/ml. Mice were orally given twice daily PHA-767491 (50 mg/kg) or a similar volume of vehicle (water). The sick animals were sacrificed and liver tumors were used for further analysis. Liver tumors were excised, formalin-fixed and paraffin-embedded, frozen, or embedded in OCT.
Liver tissues and cell pellets were lysed in Laemmli buffer or protein lysis buffer (200 mM NaCl, 0.2% NP40, 50 mM Tris at pH 7.5, 1% Tween20, protease and phosphatases inhibitors) using a tissue homogenizer. Equal amounts of protein were separated on 12% SDS-polyacrylamide gels and transferred to PVDF membranes. […] Images were analyzed using the AlphaView software (ProteinSimple). Detection in immunoblots was performed using antibodies for CDK9 (Santa Cruz Biotechnology), MCM6 (Santa Cruz Biotechnology), PSMB2 (Santa Cruz Biotechnology), β-Actin (AC-15, Sigma), p53 (Leica Biosystems), MYC (Abcam), CCNT1 (Santa Cruz Biotechnology), phopho-Ser2 RNA Pol II (Cell Signaling), and RNA Pol II (Santa Cruz Biotechnology).

[2] = test system: human and murine cell lines; assay: Comparison of inhibitor IC50 with anti-proliferative effects of CDK9 shRNAs; assay type: cell-based; details: IC50 compared with competitive proliferation assays
From the text: (FIG. 3A) Scatter plot illustrating the correlation between anti-proliferative effects of CDK9 shRNAs and the IC50 of PHA-767491 in six human cell lines. The correlation and p values of three additional CDK9 inhibitors and one DNA replication inhibitor (aphidicolin) are also shown in the right panel. The survival is defined as the average of the survival ratio of two shRNAs in competitive proliferation assay. (FIG. 3B) Proliferation rates of PHA-767491-treated human cells, calculated by measuring the change in viable cell number after 72 h in culture and fitting data to an exponential growth curve. Results were normalized to the proliferation rate of vehicle (H2O) treated cells, set to 1. Values are mean+/−SD of three independent replicates. (FIG. 3C) Summary of PHA-767491 IC50 values of human cell lines in FIG. 3A. […]
Competitive proliferation assays using shRNAs in TRMPV-Neo vector (with miR-30 or miR-E backbone) were performed as described previously (Zuber J, et al. Nature (2011) 478: 524-528). […] Proliferation rates were calculated by dividing cell concentration at 72 h and cell concentration at 0 h, divided by 72. Relative proliferation rates were calculated by normalizing to the rate of vehicle-treated cells. Population doublings were calculated by calculating log 2 (cells at end point/cells at initial point) divided by time in days. […]

HepG2 cells = assay: Orthotopic HepG2 HCC xenograft, bioluminescent imaging and Ki67; assay type: in vivo, mice; details: high MYC expressing HepG2; 50 mg/kg twice a day
Experimental: (§1) All mouse experiments were approved by the Memorial Sloan-Kettering Cancer Center (MSKCC) Animal Care and Use Committee (protocol no. 11-06-011). Mice were maintained under specific pathogen-free conditions, and food and water were provided ad libitum. For conditional RNAi experiments in vivo, Tet-on murine HCC MP1 cells were transduced with luciferase-hygro and TRMPV-Neo-miR-E shRNA constructs. […] For whole-body bioluminescent imaging, mice were intraperitoneally injected with 50 mg/kg D-Luciferin (Goldbio), and after 10 min, analysed using an IVIS Spectrum system (Caliper LifeSciences). Quantification was performed using Living Image software (Caliper LifeSciences) with standardized round regions of interests covering the mouse trunk and extremities. […]
(§2) Liver tissues and cell pellets were lysed in Laemmli buffer or protein lysis buffer (200 mM NaCl, 0.2% NP40, 50 mM Tris at pH 7.5, 1% Tween20, protease and phosphatases inhibitors) using a tissue homogenizer. […] The abundance of β-actin was monitored to ensure equal loading. Images were analyzed using the AlphaView software (ProteinSimple). […]

[3] = test system: non-transformed cell lines; assay: Proliferation assay in non-transformed cell lines; assay type: cell-based; details: two non-transformed cell lines, compared with cancer cell lines
Experimental: Dead cells were excluded using propidium iodide (PI) staining to score cells with sub-2N DNA content. Measurements of cell concentration were performed on a Guava Easycyte (Millipore), gating only viable cells (FSC/SSC/PI-). Proliferation rates were calculated by dividing cell concentration at 72 h and cell concentration at 0 h, divided by 72. Relative proliferation rates were calculated by normalizing to the rate of vehicle-treated cells. Population doublings were calculated by calculating log 2 (cells at end point/cells at initial point) divided by time in days.

SNU-475 cells = assay: Proliferation assay in SNU-475 cells with enforced MYC expression; assay type: cell-based, human; details: MYC levels equivalent to HepG2
Alexander cells = assay: Orthotopic Alexander HCC xenograft, bioluminescent imaging and Ki67; assay type: in vivo, mice; details: low MYC expressing Alexander; same treatment
Experimental: as §1, §2

[4] = test system: MYC-overexpressing Alexander cells; assay: Proliferation assay in Alexander cells with enforced MYC expression; assay type: cell-based, human; details: ectopic MYC expression versus empty vector
human HCC cell lines [5] = assay: Cell cycle analysis (BrdU/7-AAD staining) after 48 hours of treatment; assay type: cell-based; details: PHA-767491 treatment
Experimental: (FIG. 3E) Representative flow cytometry plots showing cell cycle analysis (BrdU+7-AAD+ double staining) of cells after 48 hours of PHA-767491 treatment.

CDK9, sequence (P50750 whole entry, species assumed): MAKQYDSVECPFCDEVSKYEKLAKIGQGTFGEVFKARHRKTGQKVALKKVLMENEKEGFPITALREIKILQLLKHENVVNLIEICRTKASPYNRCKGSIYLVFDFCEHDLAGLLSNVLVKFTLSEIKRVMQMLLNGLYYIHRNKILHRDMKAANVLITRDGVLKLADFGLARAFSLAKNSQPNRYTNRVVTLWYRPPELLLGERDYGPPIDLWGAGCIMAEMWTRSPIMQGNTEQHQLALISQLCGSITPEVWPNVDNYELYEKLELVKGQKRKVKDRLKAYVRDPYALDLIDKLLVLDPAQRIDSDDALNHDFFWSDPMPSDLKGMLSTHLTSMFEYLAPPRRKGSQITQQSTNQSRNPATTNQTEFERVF
CDK9, sequence (O60563 whole entry partner, species assumed): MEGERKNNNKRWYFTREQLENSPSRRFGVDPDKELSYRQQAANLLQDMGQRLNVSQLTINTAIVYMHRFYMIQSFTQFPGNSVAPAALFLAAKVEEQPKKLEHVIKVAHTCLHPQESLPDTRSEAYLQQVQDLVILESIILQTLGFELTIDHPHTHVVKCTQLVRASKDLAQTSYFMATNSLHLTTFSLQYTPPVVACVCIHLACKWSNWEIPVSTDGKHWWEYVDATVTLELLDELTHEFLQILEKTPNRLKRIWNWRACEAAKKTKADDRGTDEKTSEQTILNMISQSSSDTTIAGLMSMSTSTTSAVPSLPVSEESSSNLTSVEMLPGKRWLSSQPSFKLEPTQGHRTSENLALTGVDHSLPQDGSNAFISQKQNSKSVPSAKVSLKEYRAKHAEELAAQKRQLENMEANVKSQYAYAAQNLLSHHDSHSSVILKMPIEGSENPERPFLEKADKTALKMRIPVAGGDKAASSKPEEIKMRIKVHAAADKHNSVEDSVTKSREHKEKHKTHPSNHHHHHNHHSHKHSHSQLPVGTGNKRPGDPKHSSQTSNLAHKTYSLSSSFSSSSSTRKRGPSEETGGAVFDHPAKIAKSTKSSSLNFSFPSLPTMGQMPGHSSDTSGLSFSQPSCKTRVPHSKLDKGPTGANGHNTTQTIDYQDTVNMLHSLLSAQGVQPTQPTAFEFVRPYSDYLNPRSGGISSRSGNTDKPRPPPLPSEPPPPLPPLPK

| SMILES | p53 dependence of proliferation inhibition (human HCC cell lines [1]) | selectivity for CDK9 (CDK9) | Pol II Ser2 phosphorylation in tumors (Ser2 of RNA pol II; human HCC xenografts, 50 mg/kg twice a day, 50 mg/kg) | Pol II Ser2 phosphorylation in Alexander tumors (Ser2 of RNA pol II; low MYC expressing Alexander xenografts) | total RNA pol II levels in tumors (Ser2 of RNA pol II; two representative tumors) | similarity of activity spectrum to CDK9 shRNAs [2] | tumor growth (HepG2 cells) | tumor-cell proliferation (HepG2 cells) | sensitivity to treatment [3] | sensitivity compared with HepG2 cells (SNU-475 cells) | effect on tumor-cell proliferation and tumor growth (Alexander cells) | sensitivity to CDK9 inhibition [4] | cell cycle effect (human HCC cell lines [5]) |
| --- | --- | --- | --- | --- | --- | --- | --- | --- | --- | --- | --- | --- | --- |
| O=C1NCCc2[nH]c(-c3ccncc3)cc21 [PHA-767491] | inhibits cancer cell proliferation through p53-independent mechanisms | more selective for CDK9 than other available inhibitors | decrease in the levels of phosphorylation of Ser2 of RNA pol II | detectable decrease in Pol II Ser2 phosphorylation | mild changes in total RNA pol II levels | most closely recapitulated shRNA-mediated CDK9 inhibition | substantial inhibition of tumor growth and some tumor regressions | decreased tumor-cell proliferation | consistently less sensitive | produced a similar sensitivity | little if any effect | became more sensitive | triggered cell-cycle arrest |
| C[C@@]1(CO)[C@H](O)CC[C@@]2(C)[C@H]1CC[C@H]1C[C@@H]3C[C@@]12CC[C@]3(O)CO [aphidicolin] | – | – | – | – | – | did not mimic the effects of CDK9 shRNAs | – | – | – | – | – | – | – |
